ChEMBL document CHEMBL1201862, “PubChem BioAssay data set” (2004)
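Results reflect a 48-hour exposure of cells in 96-well plates to compound at five concentrations. GI50 is the concentration that inhibits growth by half.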 The source made the active and inactive calls. Cut-off read from the data, not from the text of the source: active = GI50 up to about 1.1 µM and inactive = higher.

Legend:
Assay in all cases: inhibition of tumour cell growth, NCI panel, 48 h
[1] = tested on: NCI-H522
[2] = tested on: M14
[3] = tested on: MDA-MB-231
[4] = tested on: TK-10
[5] = tested on: OVCAR-5
[6] = tested on: UACC-257
[7] = tested on: UACC-62
[8] = tested on: OVCAR-8
[9] = tested on: NCI-H226
[10] = tested on: SF-268
[11] = tested on: COLO 205
[12] = tested on: DU-145
[13] = tested on: SNB-19
[14] = tested on: UO-31
[15] = tested on: IGROV-1
[16] = tested on: SK-MEL-5
[17] = tested on: SNB-75
[18] = tested on: KM12
[19] = tested on: HOP-62

Measured: GI50

O=[N+]([O-])c1cccc2nnccc12
inactive: [1] 3.71 µM | [2] 24.3 µM | [3] > 10 µM | [4] 46.3 µM | [5] 63.5 µM | [6] 16.5 µM | [7] 13.6 µM | [8] 31.9 µM | [9] 16 µM | [10] 25.2 µM | [11] 13.3 µM | [12] 38.7 µM | [13] 35.9 µM | [14] 28.6 µM | [15] 24.7 µM | [16] 14.1 µM | [17] 48.3 µM | [18] 23.7 µM

NS(=O)(=O)c1nnc(NC(=O)Nc2ccc(Cl)c(Cl)c2)s1
inactive: [1] 11.7 µM | [2] 16.8 µM | [3] 25.9 µM | [4] 20.6 µM | [5] 24.5 µM | [19] 17.8 µM | [6] 16.5 µM | [7] 16.2 µM | [8] 20.4 µM | [9] 23.2 µM | [10] 24.7 µM | [11] 13.9 µM | [12] 29.4 µM | [13] 21 µM | [14] 27.4 µM | [16] 16.7 µM | [18] 26.9 µM

CCN(CC)CCNC(=O)c1ccc(I)cc1
inactive: [1] > 100 µM | [2] > 100 µM | [3] > 100 µM | [4] > 100 µM | [5] > 100 µM | [19] > 100 µM | [6] > 100 µM | [8] > 100 µM | [9] > 100 µM | [10] > 100 µM | [11] > 100 µM | [12] > 100 µM | [13] > 100 µM | [14] > 100 µM | [15] > 100 µM | [16] 28.4 µM | [17] 33.8 µM | [18] > 100 µM

CN1CCc2[nH]nc(-c3n[nH]c4c3CN(C)CC4)c2C1
inactive: [1] > 100 µM | [2] > 100 µM | [3] > 100 µM | [4] > 100 µM | [5] > 100 µM | [19] > 100 µM | [6] > 100 µM | [7] > 100 µM | [8] > 100 µM | [9] > 100 µM | [10] > 100 µM | [11] > 100 µM | [12] > 100 µM | [13] > 100 µM | [14] > 100 µM | [15] > 100 µM | [16] > 100 µM | [18] > 100 µM

O=C(C/C(=N/O)c1cc(-c2ccccc2)no1)c1ccccc1
inactive: [1] 18.7 µM | [2] 85.3 µM | [3] 21.4 µM | [4] 35.1 µM | [5] > 100 µM | [19] 23.8 µM | [6] 79.8 µM | [7] 31 µM | [8] 21.7 µM | [9] 20.8 µM | [10] 18.7 µM | [11] > 100 µM | [12] > 100 µM | [13] 26.5 µM | [14] 26.4 µM | [15] 30 µM | [16] 80.9 µM | [18] > 100 µM

NC(=O)NC(=O)c1cccc(CNc2ccc(C(=O)N[C@@H](CCC(=O)O)C(=O)O)cc2)n1
inactive: [1] > 100 µM | [2] > 100 µM | [3] > 100 µM | [4] > 100 µM | [5] > 100 µM | [6] > 100 µM | [7] 4 µM | [8] > 100 µM | [9] > 100 µM | [10] > 100 µM | [11] > 100 µM | [12] > 100 µM | [14] > 100 µM | [15] > 100 µM | [16] > 100 µM | [18] > 100 µM

N#Cc1nc(-c2cccnc2)oc1N
inactive: [1] > 100 µM | [3] > 100 µM | [4] > 100 µM | [5] > 100 µM | [19] > 100 µM | [6] > 100 µM | [7] > 100 µM | [9] > 100 µM | [10] > 100 µM | [11] > 100 µM | [12] > 100 µM | [13] > 100 µM | [14] 4.83 µM | [15] > 100 µM | [16] > 100 µM | [18] > 100 µM

COc1ccc2c(c1)CCN1CCc3cc(OC)c(OC)cc3CC21 (stereo not given)
inactive: [1] > 10 µM | [2] 58.5 µM | [3] > 100 µM | [4] > 100 µM | [5] > 100 µM | [6] 93.8 µM | [7] 32.6 µM | [8] > 100 µM | [9] > 100 µM | [10] 28.9 µM | [11] 21.3 µM | [12] > 100 µM | [13] 82 µM | [14] 31.8 µM | [15] > 10 µM | [17] 66.7 µM | [18] 88.5 µM

C=C(C)[C@@H]1CCC2=C(CC[C@]3(C)[C@@H]([C@@H](CCC=C(C)C)C(=O)O)[C@H](O)C[C@@]23C)[C@@]1(C)CCC(=O)O [PORICOIC ACID G]
inactive: [1] 44.2 µM | [2] 99.8 µM | [3] > 100 µM | [4] > 100 µM | [5] 45.4 µM | [19] 53.2 µM | [6] > 100 µM | [8] > 100 µM | [9] 57.3 µM | [10] 94.8 µM | [11] 52.8 µM | [12] > 100 µM | [13] 46 µM | [14] > 100 µM | [15] 42.6 µM | [16] 92.7 µM | [17] 60.5 µM | [18] 47.4 µM

O=C1NC(=O)C(C(c2ccc([N+](=O)[O-])cc2)C2C(=O)NC(=O)NC2=O)C(=O)N1
inactive: [1] > 100 µM | [2] > 100 µM | [3] > 100 µM | [4] > 100 µM | [5] > 100 µM | [19] > 100 µM | [6] > 100 µM | [7] > 100 µM | [8] > 100 µM | [9] > 100 µM | [10] 22.5 µM | [11] > 100 µM | [12] > 100 µM | [13] > 100 µM | [14] > 100 µM | [15] > 100 µM | [16] > 100 µM | [18] > 100 µM

CN(C)Cc1cc(C(=O)/C=C/c2ccc(Br)cc2)cc(CN(C)C)c1O
inactive: [1] 3.93 µM | [2] 4.79 µM | [3] 3.21 µM | [4] 13 µM | [5] 19.3 µM | [19] 4.33 µM | [6] 6.53 µM | [8] 4.03 µM | [9] 17.3 µM | [10] 18.2 µM | [11] 1.67 µM | [12] 12.6 µM | [13] 12.8 µM | [14] 1.82 µM | [15] 11.7 µM | [16] 10.7 µM | [17] 11.3 µM | [18] 2.16 µM

C[N+](C)(C)/N=C\c1ccc(O)c(O)c1
inactive: [1] > 100 µM | [2] > 100 µM | [3] > 100 µM | [4] > 100 µM | [5] > 100 µM | [19] > 100 µM | [6] > 100 µM | [7] > 100 µM | [8] > 100 µM | [9] > 100 µM | [10] > 100 µM | [11] > 100 µM | [12] > 100 µM | [13] > 100 µM | [14] > 100 µM | [15] > 100 µM | [16] > 100 µM | [18] > 100 µM

CC1(C)[C@H]2CC[C@](C)(C2)[C@]1(S)Cc1ccccn1
inactive: [1] 65.9 µM | [2] 84.1 µM | [3] 37 µM | [4] 32.4 µM | [5] 88.9 µM | [19] 29.6 µM | [6] 25.6 µM | [7] 67.8 µM | [8] 17.5 µM | [10] 39.7 µM | [11] 34.3 µM | [12] 22.4 µM | [13] > 100 µM | [14] > 100 µM | [15] 30.8 µM | [16] 21.8 µM | [17] 23.9 µM | [18] 42.9 µM

COc1ccc(/C=C2/C(C)=NN(c3cccc(Cl)c3)/C2=N/c2nc3ccccc3s2)cc1
inactive: [1] 19.1 µM | [2] 25.1 µM | [3] 24.7 µM | [4] 29 µM | [5] 25.1 µM | [19] 20 µM | [6] 22.6 µM | [8] 22.6 µM | [9] 22.3 µM | [10] 25.6 µM | [12] 19.6 µM | [14] 19.3 µM | [15] 20.7 µM | [16] 16.6 µM | [17] 26.8 µM | [18] 30.4 µM

CC(=O)N(CC(=O)C(=O)NNc1ccoc1)c1ccc(Cl)cc1
inactive: [1] > 100 µM | [2] > 100 µM | [3] > 100 µM | [4] > 100 µM | [5] > 100 µM | [19] > 100 µM | [6] > 100 µM | [8] > 100 µM | [9] > 100 µM | [10] > 100 µM | [11] > 100 µM | [12] 87.3 µM | [13] > 100 µM | [14] 77.1 µM | [15] > 100 µM | [16] > 100 µM | [17] > 100 µM | [18] > 100 µM

CCc1ccc(CCN2CCCCC2)nc1
inactive: [1] 52.1 µM | [2] > 100 µM | [3] > 100 µM | [4] > 100 µM | [5] > 100 µM | [19] > 100 µM | [6] > 100 µM | [7] > 100 µM | [8] > 100 µM | [9] > 100 µM | [10] > 100 µM | [11] > 100 µM | [12] > 100 µM | [13] > 100 µM | [14] > 100 µM | [15] 58.9 µM | [16] > 100 µM | [18] > 100 µM
